Key:
Pictilisib/GDC0941 = compound: CS(=O)(=O)N1CCN(Cc2cc3nc(-c4cccc5[nH]ncc45)nc(N4CCOCC4)c3s2)CC1 [Pictilisib/GDC0941]
Saracatinib/AZD0530 = compound: CN1CCN(CCOc2cc(OC3CCOCC3)c3c(Nc4c(Cl)ccc5c4OCO5)ncnc3c2)CC1 [Saracatinib/AZD0530]
Dasatinib = compound: Cc1nc(Nc2ncc(C(=O)Nc3c(C)cccc3Cl)s2)cc(N2CCN(CCO)CC2)n1 [Dasatinib]
Ceritinib/LDK378 = compound: Cc1cc(Nc2ncc(Cl)c(Nc3ccccc3S(=O)(=O)C(C)C)n2)c(OC(C)C)cc1C1CCNCC1 [Ceritinib/LDK378]
AZD7762 = compound: NC(=O)Nc1cc(-c2cccc(F)c2)sc1C(=O)N[C@H]1CCCNC1 [AZD7762]
Neratinib/HKI272 = compound: CCOc1cc2ncc(C#N)c(Nc3ccc(OCc4ccccn4)c(Cl)c3)c2cc1NC(=O)/C=C/CN(C)C [Neratinib/HKI272]
Cabozantinib = compound: COc1cc2nccc(Oc3ccc(NC(=O)C4(C(=O)Nc5ccc(F)cc5)CC4)cc3)c2cc1OC [Cabozantinib]
Tivantinib/ARQ197 = compound: O=C1NC(=O)[C@@H](c2cn3c4c(cccc24)CCC3)[C@@H]1c1c[nH]c2ccccc12 [Tivantinib/ARQ197]
Cediranib/AZD2171 = compound: COc1cc2c(Oc3ccc4[nH]c(C)cc4c3F)ncnc2cc1OCCCN1CCCC1 [Cediranib/AZD2171]
[1] = compound: CC(=O)c1c(C)c2cnc(Nc3ccc(N4CCNCC4)cn3)nc2n(C2CCCC2)c1=O
[2] = compound: Cc1nn(C)c(COc2ccc(N3CCN(S(=O)(=O)N(C)C)CC3)cc2)c1-c1cccc2c(CCCOc3cccc4ccccc34)c(C(=O)O)n(CCN3CCOCC3)c12
Alpelisib/BYL719 = compound: Cc1nc(NC(=O)N2CCC[C@H]2C(N)=O)sc1-c1ccnc(C(C)(C)C(F)(F)F)c1 [Alpelisib/BYL719]
INK128/MLN0128 = compound: CC(C)n1nc(-c2ccc3oc(N)nc3c2)c2c(N)ncnc21 [INK128/MLN0128]
Buparlisib/NVP-BKM120 = compound: Nc1cc(C(F)(F)F)c(-c2cc(N3CCOCC3)nc(N3CCOCC3)n2)cn1 [Buparlisib/NVP-BKM120]
Volasertib/BI6727 = compound: CC[C@@H]1C(=O)N(C)c2cnc(Nc3ccc(C(=O)N[C@H]4CC[C@H](N5CCN(CC6CC6)CC5)CC4)cc3OC)nc2N1C(C)C [Volasertib/BI6727]
Vorinostat = compound: O=C(CCCCCCC(=O)Nc1ccccc1)NO [Vorinostat]
[3] = compound: CCc1cnn2c(NCc3ccc[n+]([O-])c3)cc(N3CCCC[C@H]3CCO)nc12
[4] = compound: CCC1=CN=CN=C1N2CCN(CC2)CC3=NC4=C(N3)C=C(C=C4)C(F)(F)F
Torin2 = compound: C1=CC(=CC(=C1)N2C(=O)C=CC3=CN=C4C=CC(=CC4=C32)C5=CN=C(C=C5)N)C(F)(F)F [Torin2]
THZ1 = compound: CN(C)C/C=C/C(=O)Nc1ccc(C(=O)Nc2cccc(Nc3ncc(Cl)c(-c4c[nH]c5ccccc45)n3)c2)cc1 [THZ1]
[5] = compound: CNc1nc(-c2ccc3c(N)n[nH]c3c2)cc(N2C[C@@H](C(=O)NC3CCCCC3)CC[C@H]2C)n1
LEE011/Ribociclib = compound: CN(C)C(=O)c1cc2cnc(Nc3ccc(N4CCNCC4)cn3)nc2n1C1CCCC1 [LEE011/Ribociclib]
AZD1775 = compound: C=CCn1c(=O)c2cnc(Nc3ccc(N4CCN(C)CC4)cc3)nc2n1-c1cccc(C(C)(C)O)n1 [AZD1775]
[6] = compound: CCCCOc1c(C(=O)c2c(F)cc(C)cc2F)c[nH]c2nncc1-2
[7] = compound: COc1ccc2c(c1)[C@]1(C[C@H]1c1ccc3c(/C=C/c4ccc(CN5C[C@@H](C)O[C@@H](C)C5)cc4)n[nH]c3c1)C(=O)N2
AZD2014 = compound: CNC(=O)c1cccc(-c2ccc3c(N4CCOC[C@@H]4C)nc(N4CCOC[C@@H]4C)nc3n2)c1 [AZD2014]
R0-3306 = compound: C1=CC2=C(C=CC(=C2)C=C3C(=O)NC(=NCC4=CC=CS4)S3)N=C1 [R0-3306]
BVD523 = compound: CC(C)Nc1cc(-c2c[nH]c(C(=O)N[C@H](CO)c3cccc(Cl)c3)c2)c(Cl)cn1 [BVD523]
AZD5363 = compound: NC1(C(=O)N[C@@H](CCO)c2ccc(Cl)cc2)CCN(c2nc[nH]c3nccc2-3)CC1 [AZD5363]
BSJ-03-123 = compound: CC(=O)c1c(C)c2cnc(Nc3ccc(N4CCN(CCOCCOCCOCCNC(=O)COc5cccc6c5C(=O)N(C5CCC(=O)NC5=O)C6=O)CC4)cn3)nc2n(C2CCCC2)c1=O [BSJ-03-123]
Rucaparib = compound: CNCc1ccc(-c2[nH]c3cc(F)cc4c3c2CCNC4=O)cc1 [Rucaparib]
[8] = compound: CO[C@@H](C)Cn1c(=O)n(C)c2cnc3ccc(-c4cncc(C(C)(C)O)c4)cc3c21
SHP099 = compound: CC1(CCN(CC1)C2=CN=C(C(=N2)N)C3=C(C(=CC=C3)Cl)Cl)N [SHP099]
THZ-P1-2 = compound: CN(C)C/C=C/C(=O)NC1=CC=C(C=C1)C(=O)NC2=CC=CC(=C2)NC3=NC=NC(=C3)C4=CNC5=CC=CC=C54 [THZ-P1-2]
senexin b = compound: CN1CCN(C(=O)c2ccc3cc(CCNc4ncnc5ccc(C#N)cc45)ccc3c2)CC1 [senexin b]
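Note: breast cancer and non-malignant breast epithelial cell lines, Deep Dye Drop or Dye Drop imaging, nine half-log doses, GR normalized to time-zero plates and DMSO-only controls.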

Cell Line	GR50, 72 h (Pictilisib/GDC0941)	GR50, 72 h (Saracatinib/AZD0530)	GR50, 72 h (Dasatinib)	GR50, 72 h (Ceritinib/LDK378)	GR50, 72 h (AZD7762)	GR50, 72 h (Neratinib/HKI272)	GR50, 72 h (Cabozantinib)	GR50, 72 h (Tivantinib/ARQ197)	GR50, 72 h (Cediranib/AZD2171)	GR50, 72 h [1]	GR50, 72 h [2]	GR50, 72 h (Alpelisib/BYL719)	GR50, 72 h (INK128/MLN0128)	GR50, 72 h (Buparlisib/NVP-BKM120)	GR50, 72 h (Volasertib/BI6727)	GR50, 72 h (Vorinostat)	GR50, 72 h [3]	GR50, 72 h [4]	GR50, 72 h (Torin2)	GR50, 72 h (THZ1)	GR50, 72 h [5]	GR50, 72 h (LEE011/Ribociclib)	GR50, 72 h (AZD1775)	GR50, 72 h [6]	GR50, 72 h [7]	GR50, 72 h (AZD2014)	GR50, 72 h (R0-3306)	GR50, 72 h (BVD523)	GR50, 72 h (AZD5363)	GR50, 72 h (BSJ-03-123)	GR50, 72 h (Rucaparib)	GR50, 72 h [8]	GR50, 72 h (SHP099)	GR50, 72 h (THZ-P1-2)	GR50, 72 h (senexin b)
HCC1500	2.26 µM	0.259 µM	0.00348 µM	1.41 µM	0.0356 µM	0.785 µM	4.67 µM	0.115 µM	3.86 µM	> 3.16 µM	> 10 µM	> 10 µM	0.000784 µM	0.211 µM	0.0116 µM	0.96 µM	0.0138 µM	1.66 µM	0.00186 µM																
MDAMB330	0.293 µM	1.2 µM	> 10 µM	1.13 µM	0.0449 µM	0.00221 µM	> 10 µM	0.661 µM	4.86 µM	0.0198 µM	> 10 µM	1.2 µM	0.00601 µM	0.511 µM	0.0032 µM	1.55 µM	0.0203 µM	> 10 µM	0.00492 µM	0.00836 µM	0.279 µM	< 0.001 µM	0.0535 µM	0.762 µM	0.00542 µM	< 0.001 µM	7.54 µM	7.45 µM	0.198 µM	0.297 µM	8.69 µM	< 0.001 µM			
SUM190PT	3.1 µM	> 10 µM	0.212 µM	0.528 µM	0.0612 µM	1.88 µM	6.1 µM	0.0433 µM	> 10 µM	0.0436 µM	6.86 µM	> 10 µM	0.0134 µM	1.04 µM	0.0086 µM	0.402 µM	0.0215 µM	9.17 µM	0.00524 µM	0.00565 µM	2.22 µM	0.0246 µM	0.0515 µM	0.0016 µM	0.00062 µM	0.00932 µM	4.76 µM	3.33 µM	2.35 µM	0.0593 µM	> 10 µM	< 0.001 µM	> 10 µM	0.303 µM	
UACC893	0.682 µM	4.54 µM	> 10 µM	> 10 µM	0.299 µM	0.00274 µM	> 10 µM	0.297 µM	6.59 µM	0.0209 µM	> 10 µM	0.419 µM	0.00694 µM	0.271 µM	0.00357 µM	3.72 µM	0.017 µM	6.76 µM	0.00854 µM	0.0175 µM	4.83 µM	0.0051 µM	0.236 µM	0.0897 µM	0.0124 µM	< 0.001 µM	9.24 µM	0.868 µM	0.0291 µM	1.46 µM	> 10 µM	0.00107 µM	> 10 µM		> 10 µM

Reference: the supplement of paper PMC9663587
